Data: patent US20120115895A1, “TRICYCLIC INDOLE-DERIVED SPIRO DERIVATIVES AS CRTH2 MODULATORS” (Merck Serono S.A., priority 2009, published 2012)

Assays:
[1] = target: T1, CRTH2 (Homo sapiens, UniProt Q9Y5Y4); test: Radioligand binding Scintillation Proximity Assay ([3H]PGD2, hCRTH2-CHO cell membranes); design: host or cells: CHO cells
T1 sequence (Q9Y5Y4 1-395): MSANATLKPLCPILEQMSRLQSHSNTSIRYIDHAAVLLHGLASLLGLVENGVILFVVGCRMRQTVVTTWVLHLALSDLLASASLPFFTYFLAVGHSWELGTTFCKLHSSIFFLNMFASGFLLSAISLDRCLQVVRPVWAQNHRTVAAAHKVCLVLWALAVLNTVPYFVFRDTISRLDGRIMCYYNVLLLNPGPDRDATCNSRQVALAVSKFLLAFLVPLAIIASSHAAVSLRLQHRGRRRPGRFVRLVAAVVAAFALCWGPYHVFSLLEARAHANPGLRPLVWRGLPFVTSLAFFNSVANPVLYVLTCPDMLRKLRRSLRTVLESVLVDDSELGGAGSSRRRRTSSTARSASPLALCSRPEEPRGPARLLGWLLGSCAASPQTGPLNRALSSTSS
Experimental: Adherent CHO cells expressing hCRTH2 (Euroscreen, Belgium) were cultured in 225 cm2 cell culture flasks (Corning, USA) in 30 ml of medium. After two rinses of phosphate buffered saline (PBS), cells were harvested in 10 ml of PBS containing 1 mM EDTA, centrifuged at 500×g for 5 min at 4° C. and frozen at −80° C. The pellet was re-suspended in 50 mM Tris-HCl, pH 7.4, 2 mM EDTA, 250 mM Sucrose, containing protease inhibitor cocktail tablets, (Complete EDTA-free, Roche, Germany) and incubated 30 min at 4° C. Cells were disrupted by nitrogen cavitation (Parr Instruments, USA) at 4° C. (800 p.s.i. for 30 min), and centrifuged at 500×g for 10 min at 4° C. Pellet containing nuclei and cellular debris was discarded and supernatant was centrifuged 60 min at 4° C. at 45000×g. Membrane pellet was re-suspended in storage buffer (10 mM HEPES/KOH pH 7.4, 1 mM EDTA, 250 mM sucrose, protease inhibitor cocktail tablets) using Dounce homogenization and frozen in liquid nitrogen, and stored at −80° C.
The inhibitory activity can be investigated by a radioligand binding Scintillation Proximity Assay (SPA) (Sawyer et al., Br. J. Pharmocol 2002, 137, 1163-72). The SPA radioligand binding assay was performed at room temperature in binding buffer (10 mM HEPES/KOH pH 7.4, 10 mM MnC12, with protease inhibitor cocktail tablets), containing 1.5 nM [3H]PGD2 (Perkin Elmer), 10-50 μg/ml of hCRTH2—CHO cell membrane protein and 2 mg/ml of Wheat-germ agglutinin Scintillation Proximity Assay beads (RPNQ0001, GE-Healthcare) in a final volume of 100 μl in 96 well plates (Corning, USA). Non-specific binding was determined in the presence of 10 μM PGD2 (Cayman, USA). Competing Compounds of Formula (I) were diluted in dimethylsulphoxide so that the total volume of dimethylsulfoxide was kept constant at 1% dimethylsulphoxide (Me2SO). Serial dilutions of 100 μM to 100 pM were prepared and 10 μl each of the compounds of Formula (I) stock solutions were added to the binding assay reagents and incubated for 90 min with agitation at room temperature. Binding activity was determined by using a 1450 Micro-beta scintillation counter (Wallac, UK).

[2] = In vivo pharmacokinetic evaluation in rat; design: species or system Sprague Dawley male rats; conditions: rats
Experimental: (§1) In order to study the pharmacokinetic (PK) profile of test compounds in vivo, Sprague Dawley male rats or C57BL/6 female mice were dosed intravenously or after oral gavage. For both species, test compounds were dosed in solution at 1 mg/kg for i.v. route (10% ethanol, 10% N,N-dimethylacetamide, 30% propylene glycol, 50% water, v/v) and in suspension at 5 mg/kg (0.5% carboxymethylcellulose suspension, containing 0.25% Tween 20 in water) for oral gavage. PK profile in rat was obtained from 3 animals per dosing route and mouse PK profile was determined from 3 animals for each time points. The volume of administration was 2 mL/kg for i.v. dosing in both species and either 5 mL/kg (rat) or 10 mL/kg (mouse) for oral gavage. Blood samples (100 µL/time point) were collected at 0.083 (5 min), 0.25, 0.5, 1, 4, 7 and 24 hours post-dose for i.v. dosing, and at 0.5, 1, 4, 7 and 24 h for oral dosing, into heparin-Li+ containing tubes. For rats, all blood samples were collected trough a catheter in the carotid artery (placed in the artery the day before the experiment), under light isoflurane anesthesia, and stored on ice until centrifugation and plasma isolation. For mouse, blood samples were collected from intracardiac puncture at sacrifice at each time point and processed as described above for the rat. Plasma samples were stored frozen until analysis (−20° C. to −70° C.). For bioanalysis, samples were processed by protein precipitation (acetonitrile, formic acid 0.1%, addition of 3 volumes) after addition of one internal standard and analysed using a sensitive and selective LC/MS/MS method. An aliquot of the resulting supernatant was subject to LC/MS/MS analysis using a reverse phase column (Waters Xterra, C8, (3.5 μm particle size, 2.1×50 mm) and a short gradient (1 min) from (Solvent A) 85% water, 15% acetonitrile and 0.1% formic acid to (Solvent B) 90% acetonitrile, 10% water and 0.1% formic acid followed by isocratic conditions of Solvent B for 3.5 min at 0.4 mL/min. Column effluent was monitored using a Sciex API 4000 triple quadrupole mass spectrometer with a Turbo V electrospray ion source. Unknown concentrations of test compounds were determined using a calibration curve ranging from 1 to 3000 ng/mL.

[3] = In vivo pharmacokinetic evaluation in mouse; design: species or system C57BL/6 female mice; conditions: mice
Experimental: as §1

[4] = target: T1, CRTH2; test: PGD2-induced eosinophil cell shape assay in human whole blood; assay type: cell-based; design: endogenous in cells; host or cells: eosinophils in human whole blood from healthy volunteers; conditions: 10 nM PGD2
Experimental: The test compounds were diluted in dimethylsulphoxide so that the total volume of dimethylsulfoxide was kept constant at 2% dimethylsulphoxide (Me2SO). Serial dilutions of 200 μM to 0.09 μM were prepared. Samples of 90 μl of human blood from healthy volunteers (Centre de Transfusion Sanguine de Genève) were pre-incubated in polypropylene Falcon tubes (BD 352063) for 20 minutes in a water bath at 37° C. with 10 μl of diluted compounds. For CRTH2 activation, 100 μl PGD2 (Cayman 12010) at 20 nM was added (10 nM final) to each tube and cells were maintained at 37° C. For negative control cells were treated with PBS. After 10 minutes, cell activation was stopped with 120 μl Formaldehyde 10% (4% final, Fluka 41650) and cells were rested for 10 minutes at room temperature. Fixed cells were transferred into polypropylene tubes and then treated for 1 hour in a water bath at 37° C. with 2 ml of Triton—Surfact-Amps X-100 (Pierce 28314) at 0.166% (0.13% Triton final). After several washes with PBS (red cells lysed progressively during washes, two washes are necessary), cells were analyzed by flow cytometry on a FACSCalibur.

[5] = 1.5 nM [3H]PGD2, hCRTH2-CHO membranes, SPA, read-out: IC50 binding
[6] = oral bioavailability, 5 mg/kg po, 1 mg/kg i.v.

SMILES	IC50 [1, 5] [nM]	also measured
O=C(O)CN1C(=O)C2(NC(=O)N(Cc3cc(Cl)ccc3F)C2=O)c2cc(Cl)ccc21 (single isomer, unassigned; (+)) [(+)-Enantiomer, (+)-[5′-Chloro-1-(5-chloro-2-fluorobenzyl)-2,2′,5-trioxospiro[imidazolidine-4,3′-indol]-1′(2′H)-yl]acetic acid, reference compound]		Cmax ([2]; male, Sprague Dawley, rat, plasma, po, 5 mg/Kg): 151 ng/mL; Fz in rats [2, 6]: 5.3%; IC50 ([1]; comparison table with (+)-Enantiomer, read-out: Binding IC50): 21 nM; activity on DP2 ([1]; first eluting enantiomer compared with second eluting enantiomer): better activity; Cmax ([3]; female, C57BL/6, mouse, plasma, po, 5 mg/Kg): 113 ng/mL; Fz in mice [3, 6]: 6%; IC50 [4]: 50 nM
CC(C)c1nc(CN2C(=O)N(C)C3(C2=O)C(=O)N(CC(=O)O)c2ccc(Cl)cc23)cs1 (stereo not drawn) [Example 5, [5′-chloro-1-[(2-isopropyl-1,3-thiazol-4-yl)methyl]-3-methyl-2,2′,5-trioxospiro[imidazolidine-4,3′-indol]-1′(2′H)-yl]acetic acid]	628	
CN1C(=O)N(Cc2cn(-c3ccccc3)nc2-c2ccccc2)C(=O)C12C(=O)N(CC(=O)O)c1ccc(Cl)cc12 (stereo not drawn) [Example 6, [5′-chloro-1-[(1,3-diphenyl-1H-pyrazol-4-yl)methyl]-3-methyl-2,2′,5-trioxospiro[imidazolidine-4,3′-indol]1′(2′H)-yl]acetic acid]	123	
Cc1onc(-c2ccccc2)c1CN1C(=O)N(C)C2(C1=O)C(=O)N(CC(=O)O)c1ccc(Cl)cc12 (stereo not drawn) [Example 7, [5′-chloro-3-methyl-1-[(5-methyl-3-phenylisoxazol-4-yl)methyl]-2,2′,5-trioxospiro[imidazolidine-4,3′-indol]-1′(2′H)-yl]acetic acid]	148	
CN1C(=O)N(Cc2csc(-c3ccccc3)n2)C(=O)C12C(=O)N(CC(=O)O)c1ccc(Cl)cc12 (stereo not drawn) [Example 8, [5′-chloro-3-methyl-2,2′,5-trioxo-1-[(2-phenyl-1,3-thiazol-4-yl)methyl] Spiro[imidazolidine-4,3′-indol]-1′(2′H)-yl]acetic acid]	44	
COc1c(C)cnc(CN2C(=O)N(C)C3(C2=O)C(=O)N(CC(=O)O)c2ccc(Cl)cc23)c1C (stereo not drawn) [Example 9, [5′-chloro-1-[(4-methoxy-3,5-dimethylpyridin-2-yl)methyl]-3-methyl-2,2′,5-trioxospiro[imidazolidine-4,3′-indol]-1′(2′H)-yl]acetic acid]	363	
CN1C(=O)N(CCc2ccccc2Cl)C(=O)C12C(=O)N(CC(=O)O)c1ccc(Cl)cc12 (stereo not drawn) [Example 12, [5′-chloro-1-[2-(2-chlorophenyl)ethyl]-3-methyl-2,2′,5-trioxospiro[imidazolidine-4,3′-indol]-1′(2′H)-yl]acetic acid]	740	

Now from value to compound, other results behind:

IC50 [1, 5] [nM]	SMILES	also measured
144	CCCN1C(=O)N(Cc2cc(Cl)ccc2F)C(=O)C12C(=O)N(CC(=O)O)c1ccc(Cl)cc12 (single isomer, unassigned) [Example 4]	
336	CCN1C(=O)N(Cc2cc(Cl)ccc2F)C(=O)C12C(=O)N(CC(=O)O)c1ccc(Cl)cc12 (single isomer, unassigned; (+)) [Example 3, [(+)-5′-chloro-1-(5-chloro-2-fluorobenzyl)-3-ethyl-2,2′,5-trioxospiro[imidazolidine-4,3′-indol]-1′(2′H)-yl]acetic acid]	
62	CN1C(=O)N(Cc2cc(Cl)ccc2F)C(=O)C12C(=O)N(CC(=O)O)c1ccc(Cl)cc12 (stereo not drawn) [Example 1, [5′-chloro-1-(5-chloro-2-fluorobenzyl)-3-methyl-2,2′,5-trioxospiro[imidazolidine-4,3′-indol]-1′(2′H)-yl]acetic acid]	
498	CN1C(=O)N(Cc2cc(F)ccc2F)C(=O)C12C(=O)N(CC(=O)O)c1ccc(Cl)cc12 (stereo not drawn) [Example 10, [5′-chloro-1-(2,5-difluorobenzyl)-3-methyl-2,2′,5-trioxospiro[imidazolidine-4,3′-indol]-1′(2′H)-yl]acetic acid]	
945	CN1C(=O)N(Cc2nc3ccccc3s2)C(=O)C12C(=O)N(CC(=O)O)c1ccc(Cl)cc12 (stereo not drawn) [Example 11, [1-(1,3-benzothiazol-2-ylmethyl)-5′-chloro-3-methyl-2,2′,5-trioxospiro[imidazolidine-4,3′-indol]-1′(2′H)-yl]acetic acid]	
916	CN1C(=O)N(CCc2cccc(F)c2)C(=O)C12C(=O)N(CC(=O)O)c1ccc(Cl)cc12 (stereo not drawn) [Example 13, [15′-chloro-1-[2-(3-fluorophenyl)ethyl]-3-methyl-2,2′,5-trioxospiro[imidazolidine-4,3′-indol]-1′(2′H)-yl]acetic acid]	
940	CN1C(=O)N(CCc2ccccc2F)C(=O)C12C(=O)N(CC(=O)O)c1ccc(Cl)cc12 (stereo not drawn) [Example 14, [15′-chloro-1-[2-(2-fluorophenyl)ethyl]-3-methyl-2,2′,5-trioxospiro[imidazolidine-4,3′-indol]-1′(2′H)-yl]acetic acid]	
551	CN1C(=O)N(CCc2cccc(Cl)c2)C(=O)C12C(=O)N(CC(=O)O)c1ccc(Cl)cc12 (stereo not drawn) [Example 15, [15′-chloro-1-[2-(3-chlorophenyl)ethyl]-3-methyl-2,2′,5-trioxospiro[imidazolidine-4,3′-indol]-1′(2′H)-yl]acetic acid]	
